Among the test systems are CCRF-CEM leukemia; HL-60(TB) leukemia; M14 melanoma; MDA-MB-435; MOLT-4 leukemia; OVCAR-4 ovarian; RPMI-8226 leukemia; SF-268 CNS; SN12C renal; UACC-62 melanoma.
Holding throughout (experiment): NCI-60 cell line screen, 48 h

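Compound exposure: 48 hours, 5 concentrations, 96-well plates. GI50 marks 50% less growth. At the TGI there is no net growth.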

With `COc1cnc2c(c1)C(=O)c1c-2n(CCCN2CCOCC2)c(=O)c2cc(F)ccc12`, the GI50 is 85.3 nM with CCRF-CEM leukemia; 373 nM with HL-60(TB) leukemia; 288 nM in the assay with M14 melanoma; 454 nM in the assay with MDA-MB-435; 106 nM with MOLT-4 leukemia; 352 nM in the assay with OVCAR-4 ovarian. The GI50 is 135 nM in the assay with RPMI-8226 leukemia, 265 nM in the assay with SF-268 CNS, 320 nM with SN12C renal and 235 nM with UACC-62 melanoma. Further, the TGI with CCRF-CEM leukemia was > 100 µM; in the assay with HL-60(TB) leukemia, 2.85 µM; in the assay on M14 melanoma, > 100 µM; with MDA-MB-435 it was > 100 µM; in the assay on MOLT-4 leukemia, 0.637 µM; with OVCAR-4 ovarian, > 100 µM. Also, the TGI was 0.804 µM with RPMI-8226 leukemia, > 100 µM in the assay on SF-268 CNS, > 100 µM in the assay on SN12C renal and 0.926 µM in the assay on UACC-62 melanoma.
For the molecule `COc1cc2c(c(OC)c1OC)-c1ccc(NNC(N)=S)c(=O)cc1[C@@H](NC(C)=O)CC2`, the GI50 was 434 nM in the assay with CCRF-CEM leukemia; 226 nM in the assay with HL-60(TB) leukemia; 284 nM with M14 melanoma; 255 nM in the assay on MDA-MB-435; 568 nM in the assay with MOLT-4 leukemia; 625 nM with OVCAR-4 ovarian. The GI50 was 390 nM in the assay on RPMI-8226 leukemia, 509 nM in the assay on SF-268 CNS, 881 nM in the assay on SN12C renal and 666 nM with UACC-62 melanoma. The TGI in the assay with CCRF-CEM leukemia was > 100 µM; in the assay with M14 melanoma, 0.735 µM; with MOLT-4 leukemia it was > 100 µM; with OVCAR-4 ovarian it was > 100 µM; in the assay with RPMI-8226 leukemia, > 29.4 µM; with SF-268 CNS, > 100 µM. The TGI in the assay on SN12C renal and with UACC-62 melanoma was > 100 µM in each case.
Turning to `Cc1nc2sccn2c1-c1csc(Nc2ccccc2Cl)n1`, the GI50 with CCRF-CEM leukemia is 3320 nM; in the assay with HL-60(TB) leukemia, 3000 nM; with M14 melanoma, 3380 nM; in the assay with MDA-MB-435 it was 690 nM; with MOLT-4 leukemia, 3280 nM; in the assay with OVCAR-4 ovarian, 2350 nM. Further, the GI50 is 1930 nM in the assay with RPMI-8226 leukemia, 8330 nM in the assay with SF-268 CNS, 3580 nM with SN12C renal and 3050 nM in the assay on UACC-62 melanoma. The TGI in the assay with CCRF-CEM leukemia is 53.2 µM; in the assay with HL-60(TB) leukemia, 29.2 µM; in the assay with M14 melanoma it was 18 µM; with MDA-MB-435 it was 8.61 µM; in the assay on MOLT-4 leukemia it was 17 µM; with OVCAR-4 ovarian it was 83.5 µM. In addition, the TGI is 19.1 µM in the assay with RPMI-8226 leukemia, 86.5 µM in the assay on SF-268 CNS, > 100 µM in the assay on SN12C renal and 23.3 µM in the assay on UACC-62 melanoma.
Take `NS(=O)(=O)OC[C@@H]1C[C@@H](n2ccc3c(NC4CCc5ccccc54)ncnc32)C[C@@H]1O` (stereo partly drawn): the GI50 in the assay with CCRF-CEM leukemia was 324 nM; in the assay with HL-60(TB) leukemia it was 214 nM; in the assay on M14 melanoma it was 712 nM; in the assay on MDA-MB-435 it was 5750 nM; in the assay on MOLT-4 leukemia it was 370 nM; in the assay with OVCAR-4 ovarian, 15700 nM. Moreover, the GI50 was 5410 nM with RPMI-8226 leukemia, 548 nM in the assay on SF-268 CNS, 614 nM in the assay with SN12C renal and 85.6 nM in the assay on UACC-62 melanoma. Further, the TGI was 55.9 µM with CCRF-CEM leukemia; 14 µM in the assay on HL-60(TB) leukemia; > 100 µM with M14 melanoma; > 100 µM in the assay on MDA-MB-435; 11.1 µM in the assay on MOLT-4 leukemia; > 100 µM in the assay with OVCAR-4 ovarian. In addition, the TGI in the assay on RPMI-8226 leukemia is 27.6 µM; in the assay on SF-268 CNS, > 100 µM; in the assay with SN12C renal it was > 100 µM; with UACC-62 melanoma, 20.6 µM.
With `O=C(CCNC12CC3CC(CC(C3)C1)C2)c1ccccc1`, the TGI in the assay on CCRF-CEM leukemia is 39.2 µM; in the assay on HL-60(TB) leukemia it was 28.1 µM; in the assay on M14 melanoma it was 37.1 µM; in the assay with MDA-MB-435 it was 65.9 µM; in the assay with MOLT-4 leukemia, 35.3 µM; in the assay on OVCAR-4 ovarian, > 100 µM. In addition, the TGI with RPMI-8226 leukemia was 26.4 µM; with SF-268 CNS, > 100 µM; in the assay with SN12C renal, 36.3 µM; with UACC-62 melanoma it was 39.6 µM.
With `CCC(=O)[C@H](C)[C@@H](OC(=O)[C@H](C)CC)[C@H](C)[C@H]1OC(CC)=C(C)C(=O)[C@@H]1C`, the GI50 is 19700 nM in the assay on CCRF-CEM leukemia; 15300 nM with HL-60(TB) leukemia; 22800 nM in the assay with M14 melanoma; 21500 nM in the assay on MDA-MB-435; 19100 nM in the assay on MOLT-4 leukemia; 29000 nM in the assay on OVCAR-4 ovarian. Also, the GI50 with RPMI-8226 leukemia is 10100 nM; in the assay on SF-268 CNS, 25300 nM; in the assay with SN12C renal, 15400 nM; in the assay on UACC-62 melanoma, 13700 nM. Also, the TGI in the assay with CCRF-CEM leukemia is 44.8 µM; in the assay with HL-60(TB) leukemia, 40.3 µM; in the assay with M14 melanoma, 72.5 µM; in the assay on MDA-MB-435, 56.1 µM; with MOLT-4 leukemia, 53.6 µM; in the assay on OVCAR-4 ovarian, > 100 µM. The TGI with RPMI-8226 leukemia is 35.1 µM; with SF-268 CNS, > 100 µM; in the assay on SN12C renal it was 29.8 µM; with UACC-62 melanoma, 27.7 µM.
As for `Nc1c(C(=O)c2cccc(CCS(N)(=O)=O)c2)cnn1-c1ccc(F)cc1`, the GI50 in the assay on CCRF-CEM leukemia, with HL-60(TB) leukemia, in the assay with M14 melanoma, in the assay on MDA-MB-435, in the assay with MOLT-4 leukemia and in the assay on OVCAR-4 ovarian was > 25000 nM each time. For the same molecule, the GI50 in the assay with RPMI-8226 leukemia, with SF-268 CNS, with SN12C renal and in the assay on UACC-62 melanoma was > 25000 nM in each case. Further, the TGI with CCRF-CEM leukemia, with HL-60(TB) leukemia, with M14 melanoma, in the assay on MDA-MB-435, in the assay on MOLT-4 leukemia and with OVCAR-4 ovarian was > 25 µM throughout. Also, the TGI in the assay on RPMI-8226 leukemia, in the assay on SF-268 CNS, with SN12C renal and in the assay on UACC-62 melanoma was > 25 µM each time.
Take `CCOC(=O)Cn1c(C(F)(F)F)nc2nc(Cl)c(Cl)nc21`: the TGI is > 69.5 µM with CCRF-CEM leukemia; 42.9 µM in the assay with HL-60(TB) leukemia; > 100 µM with M14 melanoma; > 100 µM with MDA-MB-435; 97.6 µM with MOLT-4 leukemia; 30.2 µM with OVCAR-4 ovarian. The TGI was 26.7 µM with RPMI-8226 leukemia, > 100 µM in the assay on SF-268 CNS, > 100 µM in the assay with SN12C renal and > 78.4 µM in the assay with UACC-62 melanoma.

The record behind these values is PubChem BioAssay (NCI).
